Experimental findings from ChEMBL document CHEMBL1150055, “New Diol Esters Isolated from Cultures of the Dinoflagellates Prorocentrum lima and Prorocentrum concavum” (J Nat Prod, 1992) are described below.

Assay [1] can be described thus: Inhibition of PP2A.
The nature of assay [2]: Inhibition of PP1.

Activity calls are given as the source filed them. The calls are words filed in the database; no cut-off is given here.

Take `C=C1[C@@H](O)[C@@H]2O[C@]3(CC[C@H](/C=C/[C@@H](C)[C@@H]4CC(C)=C[C@@]5(O[C@H](C[C@@](C)(O)C(=O)OC/C(C)=C/C=C/CO)CC[C@H]5O)O4)O3)CC[C@H]2O[C@@H]1[C@@H](O)C[C@H](C)[C@H]1O[C@@]2(CCCCO2)CC[C@H]1C`: the result in assay [1] and in assay [2] was inactive.
Turning to `C=C1[C@@H](O)[C@@H]2O[C@]3(CC[C@H](/C=C/[C@@H](C)[C@@H]4CC(C)=C[C@@]5(O[C@H](C[C@@](C)(O)C(=O)OC/C(C)=C/C=C/CCO)CC[C@H]5O)O4)O3)CC[C@H]2O[C@@H]1[C@@H](O)C[C@H](C)[C@H]1O[C@@]2(CCCCO2)CC[C@H]1C`, the result in assay [1] and in assay [2] was inactive.
For `C=C1[C@@H](O)[C@@H]2O[C@]3(CC[C@H](/C=C/[C@@H](C)[C@@H]4CC(C)=C[C@@]5(O[C@H](C[C@@](C)(O)C(=O)OC)CC[C@H]5O)O4)O3)CC[C@H]2O[C@@H]1[C@@H](O)C[C@H](C)[C@H]1O[C@@]2(CCCCO2)CC[C@H]1C`, the result in assay [1] and in assay [2] was inactive.
